The results in this text go back to PubChem BioAssay (NCI).

Among the test systems are HL-60(TB) leukemia; SK-MEL-2 melanoma; KM12 colon; HCT-116 colon; M14 melanoma; PC-3 prostate; MCF7 breast.
Test in all cases: growth of human tumour cells (NCI), 48 h

Values joined by “and” are separate entries in the source; they are usually repeats but may differ in a detail not shown here. Identical values can stand only once.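 Compound exposure: 48 hours, 5 concentrations, 96-well plates. At the GI50, growth is halved. TGI marks complete inhibition of growth.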

As to `COc1ccc(/C=C(\C#N)c2cc(OC)c(OC)c(OC)c2)cc1`, the GI50 was 0.0244 µM in the experiment with HL-60(TB) leukemia; 0.0356 µM in the experiment on SK-MEL-2 melanoma; less than 0.01 µM with KM12 colon; 0.0161 µM in the experiment with HCT-116 colon; 0.0269 µM in the experiment with M14 melanoma; 0.0308 µM with PC-3 prostate. Besides, the GI50 with MCF7 breast is 0.0272 µM. For the same compound, the TGI is 0.0661 µM in the experiment on HL-60(TB) leukemia; greater than 100 µM with SK-MEL-2 melanoma; greater than 100 µM in the experiment with KM12 colon; greater than 100 µM with HCT-116 colon; greater than 100 µM with M14 melanoma; greater than 87.1 µM with PC-3 prostate. Besides, the TGI in the experiment with MCF7 breast is greater than 50.3 µM.

With `CSCc1ncc(-c2ccc(C(F)(F)F)cc2)c(NC2CCCCCC2)n1`, the GI50 in the experiment with HL-60(TB) leukemia, in the experiment with SK-MEL-2 melanoma, with KM12 colon, with HCT-116 colon, in the experiment with M14 melanoma and with PC-3 prostate was greater than 10 µM throughout. Further, the GI50 with MCF7 breast is greater than 10 µM. In addition, the TGI in the experiment with HL-60(TB) leukemia, with SK-MEL-2 melanoma, with KM12 colon, in the experiment on HCT-116 colon, in the experiment with M14 melanoma and in the experiment with PC-3 prostate was greater than 10 µM in each case. The compound further displayed a TGI in the experiment on MCF7 breast greater than 10 µM.

In the case of `COc1ccc(N=c2nc3sc4cc(Cl)ccc4n3c(N)c2C#N)cc1`, the GI50 with HL-60(TB) leukemia was 11.4 µM; with SK-MEL-2 melanoma, 2.8 µM; in the experiment on KM12 colon, 2.47 µM; with HCT-116 colon, 6.5 µM; in the experiment with M14 melanoma, 4.45 µM; with PC-3 prostate, 15.4 µM. Further, the GI50 with MCF7 breast is 1.92 µM. For the same compound, the TGI in the experiment on HL-60(TB) leukemia was greater than 94.9 µM; in the experiment on SK-MEL-2 melanoma, 34.7 µM; in the experiment on KM12 colon, 6.89 µM; in the experiment with HCT-116 colon, greater than 100 µM; in the experiment with M14 melanoma, greater than 100 µM; in the experiment on PC-3 prostate it was greater than 100 µM. Besides, in the experiment with MCF7 breast, the TGI amounted to 21.5 µM.

As for `CN(C)CCN=c1nc2c(c(N)n1-c1ccccc1)c(=S)n(-c1ccccc1)c(=S)n2-c1ccccc1`, the GI50 is 1.52 µM in the experiment on HL-60(TB) leukemia; 1.73 µM with SK-MEL-2 melanoma; 3.8 µM with KM12 colon; 2.24 µM in the experiment with HCT-116 colon; 1.69 µM with M14 melanoma; 4.58 µM in the experiment with PC-3 prostate. For the same compound, the GI50 with MCF7 breast was 1.9 µM. Also, the TGI in the experiment on HL-60(TB) leukemia was determined as 3.3 µM; with SK-MEL-2 melanoma it was 3.4 µM; in the experiment with KM12 colon, 14.2 µM; in the experiment on HCT-116 colon, 9.38 µM; with M14 melanoma, 3.81 µM; in the experiment on PC-3 prostate, 27.7 µM. In addition, the TGI in the experiment on MCF7 breast was 7.39 µM.

As for `CCOC1=C/C(=N\Nc2ccc([N+](=O)[O-])cc2)CCC1`, the TGI is greater than 100 µM with HL-60(TB) leukemia; 58.1 µM in the experiment on SK-MEL-2 melanoma; greater than 100 µM with KM12 colon; greater than 100 µM in the experiment on HCT-116 colon; greater than 100 µM in the experiment on M14 melanoma; greater than 100 µM in the experiment on PC-3 prostate. In the experiment with MCF7 breast, this compound yielded a TGI greater than 100 µM.

For the compound `Cc1nc(C(=O)OCc2ccccc2)cc(OCc2ccccc2)c1C`, the GI50 in the experiment on HL-60(TB) leukemia is 1.53 µM; in the experiment on SK-MEL-2 melanoma, 26.4 µM; in the experiment on KM12 colon it was 29 µM; in the experiment on HCT-116 colon it was 13.6 µM; in the experiment on M14 melanoma it was 19.8 µM; in the experiment with PC-3 prostate, 21 µM. In addition, the GI50 in the experiment with MCF7 breast is 18.3 µM. Besides, the TGI is 25 µM in the experiment on HL-60(TB) leukemia; greater than 84.5 µM in the experiment on SK-MEL-2 melanoma; greater than 87.6 µM in the experiment on KM12 colon; 32.6 µM in the experiment on HCT-116 colon; 40.3 µM with M14 melanoma; greater than 69.8 µM in the experiment on PC-3 prostate. The same compound displayed a TGI in the experiment on MCF7 breast of 43.2 µM.

Consider `CN1C2C=CC(=O)C1C(C#N)C2` (centres undefined), for which the TGI with HL-60(TB) leukemia is 43.7 µM and > 100 µM; in the experiment on SK-MEL-2 melanoma, 32.1 µM and > 100 µM; with KM12 colon, greater than 100 µM; in the experiment on HCT-116 colon, 54.9 µM and > 100 µM; in the experiment on M14 melanoma it was 89.7 µM and > 100 µM; in the experiment with PC-3 prostate, greater than 100 µM. The TGI in the experiment with MCF7 breast was greater than 100 µM. The GI50 was 12.5 µM and 88.3 µM in the experiment with SK-MEL-2 melanoma; 29.5 µM and 69.1 µM with M14 melanoma.

For the compound `O=C(OCC1=CC(=O)c2ccccc2C1=O)c1ccccc1`, the GI50 with HL-60(TB) leukemia is 3.72 µM; in the experiment with SK-MEL-2 melanoma it was 12.3 µM; with KM12 colon it was 11.6 µM; with HCT-116 colon, 15.5 µM; in the experiment with M14 melanoma, 1.72 µM; in the experiment with PC-3 prostate it was 14.1 µM. Further, in the experiment with MCF7 breast, the GI50 is 13.2 µM. The TGI with HL-60(TB) leukemia was 14.1 µM; in the experiment on SK-MEL-2 melanoma, 35.9 µM; in the experiment with KM12 colon, 24.7 µM; in the experiment on HCT-116 colon it was 29.7 µM; with M14 melanoma, 3.59 µM; in the experiment on PC-3 prostate, 38 µM. In the experiment on MCF7 breast, this compound yielded a TGI of 26.8 µM.

For `COc1ccc(C2=NNC(c3sc(Cl)nc3Cl)C2)cc1` (centres undefined), the GI50 in the experiment on HL-60(TB) leukemia was 10.4 µM; in the experiment with SK-MEL-2 melanoma it was 5.47 µM; with KM12 colon it was 5.56 µM; in the experiment with HCT-116 colon, 3.39 µM; with M14 melanoma it was 3.47 µM; with PC-3 prostate, 6.11 µM. Further, the GI50 with MCF7 breast was 3.28 µM. In addition, the TGI with HL-60(TB) leukemia came to 64.1 µM; with SK-MEL-2 melanoma it was 21 µM; with KM12 colon, 19.8 µM; in the experiment with HCT-116 colon, 14.9 µM; in the experiment on M14 melanoma, 16.8 µM; with PC-3 prostate, 29.5 µM. The compound further returned a TGI in the experiment with MCF7 breast of 16.4 µM.
